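All cell lines were grown in 96-well plates and treated with compound for 48 hours. TGI: concentration producing complete growth inhibition.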

Test in all cases: NCI-60 cell line screen, 48 h
The test system of assay [1] is SK-MEL-2 melanoma.
Assay [2] deals with SNB-19 CNS.
The subject of assay [3] is MDA-MB-231 breast.
Assay [4] concerns UO-31 renal.
Assay [5] relates to NCI/ADR-RES ovarian.
For assay [6], the system named is HOP-62 NSCLC.
The subject of assay [7] is CAKI-1 renal.
The test system of assay [8] is K-562 leukemia.
Assay [9] concerns OVCAR-4 ovarian.
Assay [10] has as its system KM12 colon.
The subject of assay [11] is MCF7 breast.
Assay [12] has as its system HL-60(TB) leukemia.
The test system of assay [13] is SF-539 CNS.
The test system of assay [14] is RXF 393 renal.

Turning to `CC1(C)CC(=O)/C(=C/C2CCNC2=S)C(=O)N1` (configuration not stated), the TGI in assay [1], in assay [2], in [3], in assay [4], in assay [5] and in assay [6] was > 100 µM in each case. Further, the TGI in [7], in [8], in [9], in assay [10], in assay [11] and in assay [12] was > 100 µM each time. In [13], the TGI is > 100 µM.
As to `C=C[C@@H](OCOCC[Si](C)(C)C)[C@@H](CC)OC(CCCOC(=O)C(C)(C)C)OC` (some centres not stated), the TGI in assay [1] is 52.9 µM; in assay [2], 32.3 µM; in [3] it was > 100 µM; in assay [4], > 100 µM; in assay [5], > 100 µM; in assay [6] it was > 100 µM. The TGI in assay [7] was > 100 µM; in [8], > 100 µM; in [9] it was > 100 µM; in assay [10] it was 63 µM; in assay [11] it was 44.9 µM; in [12] it was 49.6 µM.
Take `C[C@@]12c3c4ccc(C=O)c3Oc3ccc(C=O)c(c31)Oc1c(C=O)ccc(c12)O4`: the TGI in assay [1], in [2], in [3], in assay [4], in assay [5] and in [6] was > 100 µM in each case. For the same molecule, the TGI in [8], in assay [9], in [10], in assay [11] and in [13] was > 100 µM each time.
With `COC(=O)/C=C/c1cnc2c(c1)oc(=O)n2CCc1ccccn1`, the TGI in assay [1], in assay [2], in assay [3], in assay [4], in assay [5] and in assay [6] was > 100 µM throughout. The TGI in assay [8] is > 100 µM; in assay [9], > 100 µM; in assay [10], > 100 µM; in [11], > 100 µM; in assay [12], 9.78 µM; in [13], > 100 µM.
For the molecule `O=C(c1ccco1)C1CC(c2ccc3ccccc3c2O)=NN1` (configuration not stated), the TGI in [1], in [3], in assay [4], in [5], in assay [6] and in assay [7] was > 100 µM each time. Besides, the TGI in [8], in assay [9], in assay [10], in assay [11], in assay [14] and in assay [13] was > 100 µM each time.
As to `C/C(=N/NC(=O)c1ccncc1)c1ccc(NC(=O)C(=O)Nn2c(=S)[nH]c3ccccc3c2=O)cc1`, the TGI in assay [1], in assay [2], in [3], in assay [4], in assay [5] and in [6] was > 100 µM in each case. Moreover, the TGI in assay [7], in [9], in assay [10], in assay [11], in assay [14] and in assay [13] was > 100 µM each time.
As to `O=C1CSC(/C=C/c2ccccc2)N1c1ccc(-c2ccc(-n3c(-c4ccccc4)nc4ccccc4c3=O)cc2)cc1` (configuration not stated), the TGI in assay [1] was 38.6 µM; in assay [2], 62.3 µM; in [3], > 100 µM; in [4], 50.6 µM; in assay [5], > 100 µM; in [6] it was 99.2 µM. Also, the TGI in assay [7] is 88.7 µM; in [8], > 100 µM; in assay [9] it was 63 µM; in [10], 35.8 µM; in [11], 95.9 µM; in [12] it was > 100 µM.
On to `NCCC(=O)N[C@H](Cc1cc(O)c(O)c(SCC(NC(=O)CC[C@H](N)C(=O)O)C(=O)NCC(=O)O)c1)C(=O)O` (some centres not stated), for which the TGI in [1], in assay [2], in [3], in assay [4], in assay [5] and in assay [6] was > 50 µM throughout. For the same molecule, the TGI in assay [7], in [8], in assay [9], in [10], in assay [11] and in [14] was > 50 µM each time.
Turning to `Nc1ccc(-c2ncc3cc(-c4cccc(-c5cc6cnc(-c7ccc(N)cc7)nc6c6ccccc56)c4)c4ccccc4c3n2)cc1`, the TGI in assay [1], in assay [2], in assay [3], in assay [4], in [5] and in [6] was > 100 µM in each case. Besides, the TGI in [7], in assay [8], in assay [10], in assay [11], in [14] and in assay [13] was > 100 µM each time.
Regarding `CNC(=O)CCNC(=O)CCC(=O)N(C)C`, the TGI in assay [1], in assay [2], in [3], in assay [4], in assay [5] and in [6] was > 100 µM throughout. For the same molecule, the TGI in assay [7], in assay [8], in assay [9], in [10], in [11] and in assay [14] was > 100 µM each time. Also, the TGI in [13] is > 100 µM.
For `C=C1CC(Cn2ccc(=O)[nH]c2=O)(c2ccc(-c3ccccc3)cc2)OC1=O` (configuration not stated), the TGI in assay [1] is 4.55 µM; in assay [2], 34 µM; in assay [3] it was 5.8 µM; in assay [4], 16.5 µM; in assay [5], 4.64 µM; in assay [6], 40.2 µM. Also, the TGI was determined as 2.7 µM in [7]; 1.53 µM in assay [8]; 12.9 µM in assay [10]; 2.67 µM in assay [11]; 8.89 µM in assay [13].
